# The source made the active and inactive calls. The calls are words filed in the database; no cut-off is given here.
# Columns and labels:
# [1] = Apparent volume of distribution in ICR mouse at 30 mg/kg, po administered as single dose via gavage by LC-MS/MS analysis; format: ADME, organism-based; conditions: in vivo
# [2] = biological target: T1, Tyrosine-protein kinase JAK3 (Homo sapiens, UniProt P52333)
# T1 sequence (P52333 whole entry): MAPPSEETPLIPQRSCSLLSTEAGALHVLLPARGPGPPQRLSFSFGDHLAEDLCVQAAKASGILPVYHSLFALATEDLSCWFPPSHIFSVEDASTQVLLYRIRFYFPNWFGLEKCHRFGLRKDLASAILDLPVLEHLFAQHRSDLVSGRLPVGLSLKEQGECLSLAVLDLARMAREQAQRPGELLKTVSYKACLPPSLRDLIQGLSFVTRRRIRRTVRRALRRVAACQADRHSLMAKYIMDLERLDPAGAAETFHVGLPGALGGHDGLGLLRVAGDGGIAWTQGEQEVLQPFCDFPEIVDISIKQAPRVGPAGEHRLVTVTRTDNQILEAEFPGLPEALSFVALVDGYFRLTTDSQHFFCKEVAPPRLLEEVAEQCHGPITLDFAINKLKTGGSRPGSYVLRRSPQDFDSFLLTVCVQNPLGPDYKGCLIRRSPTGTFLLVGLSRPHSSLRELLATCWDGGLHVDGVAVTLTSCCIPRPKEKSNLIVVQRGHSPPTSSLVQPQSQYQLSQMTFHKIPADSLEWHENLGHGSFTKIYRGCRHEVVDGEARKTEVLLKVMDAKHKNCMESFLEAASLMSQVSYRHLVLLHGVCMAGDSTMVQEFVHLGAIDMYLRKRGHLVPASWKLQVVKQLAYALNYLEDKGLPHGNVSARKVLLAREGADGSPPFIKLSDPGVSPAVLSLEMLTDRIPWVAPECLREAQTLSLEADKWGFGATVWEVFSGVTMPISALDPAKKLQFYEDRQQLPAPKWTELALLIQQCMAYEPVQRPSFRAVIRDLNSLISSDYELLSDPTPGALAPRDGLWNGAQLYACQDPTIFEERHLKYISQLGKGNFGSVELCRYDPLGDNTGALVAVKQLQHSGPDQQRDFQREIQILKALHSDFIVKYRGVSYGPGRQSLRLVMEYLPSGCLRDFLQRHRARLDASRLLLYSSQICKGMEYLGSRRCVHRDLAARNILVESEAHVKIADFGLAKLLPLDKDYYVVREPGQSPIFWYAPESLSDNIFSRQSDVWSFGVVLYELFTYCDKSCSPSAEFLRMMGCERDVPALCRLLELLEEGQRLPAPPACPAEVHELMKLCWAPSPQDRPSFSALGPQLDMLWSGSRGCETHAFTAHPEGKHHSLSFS
# [3] = Plasma clearance in ICR mouse at 10 mg/kg, iv administered as single dose by LC-MS/MS analysis; format: ADME, organism-based; conditions: in vivo
# [4] = biological target: T2, Tyrosine-protein kinase JAK3 (Mus musculus) (UniProt Q62137); test: Inhibition of JAK3 in anti-CD3/-CD28 coated mouse T cells assessed as reduction in IL2-induced STAT5 phosphorylation preincubated for 1 hr followed by IL2 stimulation and measured after 30 mins by Western blot analysis; conditions: T cell
# T2 sequence (whole entry): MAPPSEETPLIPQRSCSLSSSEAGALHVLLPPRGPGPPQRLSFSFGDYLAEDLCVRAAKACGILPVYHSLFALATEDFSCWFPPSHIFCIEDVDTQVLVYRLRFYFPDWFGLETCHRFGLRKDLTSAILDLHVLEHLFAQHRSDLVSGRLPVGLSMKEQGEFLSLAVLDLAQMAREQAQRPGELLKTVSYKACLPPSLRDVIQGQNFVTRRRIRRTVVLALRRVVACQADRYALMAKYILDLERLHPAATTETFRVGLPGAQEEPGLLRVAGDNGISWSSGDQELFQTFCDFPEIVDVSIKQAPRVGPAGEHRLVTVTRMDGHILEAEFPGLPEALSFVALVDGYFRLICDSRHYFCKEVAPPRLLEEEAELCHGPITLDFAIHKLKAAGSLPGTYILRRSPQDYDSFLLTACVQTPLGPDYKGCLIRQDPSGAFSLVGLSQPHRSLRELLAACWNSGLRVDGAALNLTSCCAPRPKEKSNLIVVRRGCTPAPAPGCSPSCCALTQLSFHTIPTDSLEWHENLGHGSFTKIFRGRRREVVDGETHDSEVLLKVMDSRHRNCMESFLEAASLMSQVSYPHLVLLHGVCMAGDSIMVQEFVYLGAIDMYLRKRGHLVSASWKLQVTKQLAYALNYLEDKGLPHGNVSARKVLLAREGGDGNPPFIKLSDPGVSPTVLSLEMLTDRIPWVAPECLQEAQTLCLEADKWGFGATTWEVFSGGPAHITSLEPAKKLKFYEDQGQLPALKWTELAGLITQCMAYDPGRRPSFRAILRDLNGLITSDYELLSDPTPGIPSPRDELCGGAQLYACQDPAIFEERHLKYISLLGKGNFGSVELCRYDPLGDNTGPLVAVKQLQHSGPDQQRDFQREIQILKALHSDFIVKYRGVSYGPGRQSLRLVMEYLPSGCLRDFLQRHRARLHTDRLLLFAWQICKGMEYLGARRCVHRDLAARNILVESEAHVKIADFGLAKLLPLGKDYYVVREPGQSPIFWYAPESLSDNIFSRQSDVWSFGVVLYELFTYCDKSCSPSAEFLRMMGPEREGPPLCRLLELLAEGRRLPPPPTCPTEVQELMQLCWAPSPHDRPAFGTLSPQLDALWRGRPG
# [5] = Oral bioavailability in ICR mouse at 30 mg/kg administered as single dose via gavage by LC-MS/MS analysis; format: ADME, organism-based; conditions: in vivo
# [6] = biological target: T2, Tyrosine-protein kinase JAK3 (Mus musculus); test: Inhibition of JAK3 in anti-CD3/-CD28 coated mouse T cells assessed as reduction in IL15-induced STAT5 phosphorylation at 10 uM preincubated for 1 hr followed by […] and measured after 30 mins by Western blot analysis; conditions: T cell
# Mus musculus = test: Immunosuppressive activity in po dosed Balb/c mouse model of oxazolone-induced delayed type hypersensitivity assessed as reduction in ear swelling measured after 7 days; format: functional, organism-based; conditions: time 7.0 day
# [7] = Toxicity in Balb/c mouse model of oxazolone-induced delayed type hypersensitivity assessed as change in body weight up to 30 mg/kg, po; format: organism-based; conditions: in vivo
# [8] = Apparent volume of distribution in ICR mouse at 10 mg/kg, iv administered as single dose by LC-MS/MS analysis; format: ADME, organism-based; conditions: in vivo, read-out: Vz
# [9] = biological target: EGFR (Epidermal growth factor receptor) (Homo sapiens, UniProt P00533); test: Inhibition of recombinant human GST-tagged EGFR (668 to 1210 residues) expressed in baculovirus expression system at 100 nM using Tyr04 peptide as substrate incubated for 1 hr by Z'lyte assay relative to control; conditions: probe Tyr04 peptide
# [10] = Plasma clearance in ICR mouse at 30 mg/kg, po administered as single dose via gavage by LC-MS/MS analysis; format: ADME, organism-based; conditions: in vivo
# [11] = MRT (0 to infinity) in ICR mouse at 30 mg/kg, po administered as single dose via gavage by LC-MS/MS analysis; format: ADME, organism-based; conditions: in vivo
# EGFR (Epidermal growth factor receptor), sequence (P00533 whole entry, the tested form may be a part): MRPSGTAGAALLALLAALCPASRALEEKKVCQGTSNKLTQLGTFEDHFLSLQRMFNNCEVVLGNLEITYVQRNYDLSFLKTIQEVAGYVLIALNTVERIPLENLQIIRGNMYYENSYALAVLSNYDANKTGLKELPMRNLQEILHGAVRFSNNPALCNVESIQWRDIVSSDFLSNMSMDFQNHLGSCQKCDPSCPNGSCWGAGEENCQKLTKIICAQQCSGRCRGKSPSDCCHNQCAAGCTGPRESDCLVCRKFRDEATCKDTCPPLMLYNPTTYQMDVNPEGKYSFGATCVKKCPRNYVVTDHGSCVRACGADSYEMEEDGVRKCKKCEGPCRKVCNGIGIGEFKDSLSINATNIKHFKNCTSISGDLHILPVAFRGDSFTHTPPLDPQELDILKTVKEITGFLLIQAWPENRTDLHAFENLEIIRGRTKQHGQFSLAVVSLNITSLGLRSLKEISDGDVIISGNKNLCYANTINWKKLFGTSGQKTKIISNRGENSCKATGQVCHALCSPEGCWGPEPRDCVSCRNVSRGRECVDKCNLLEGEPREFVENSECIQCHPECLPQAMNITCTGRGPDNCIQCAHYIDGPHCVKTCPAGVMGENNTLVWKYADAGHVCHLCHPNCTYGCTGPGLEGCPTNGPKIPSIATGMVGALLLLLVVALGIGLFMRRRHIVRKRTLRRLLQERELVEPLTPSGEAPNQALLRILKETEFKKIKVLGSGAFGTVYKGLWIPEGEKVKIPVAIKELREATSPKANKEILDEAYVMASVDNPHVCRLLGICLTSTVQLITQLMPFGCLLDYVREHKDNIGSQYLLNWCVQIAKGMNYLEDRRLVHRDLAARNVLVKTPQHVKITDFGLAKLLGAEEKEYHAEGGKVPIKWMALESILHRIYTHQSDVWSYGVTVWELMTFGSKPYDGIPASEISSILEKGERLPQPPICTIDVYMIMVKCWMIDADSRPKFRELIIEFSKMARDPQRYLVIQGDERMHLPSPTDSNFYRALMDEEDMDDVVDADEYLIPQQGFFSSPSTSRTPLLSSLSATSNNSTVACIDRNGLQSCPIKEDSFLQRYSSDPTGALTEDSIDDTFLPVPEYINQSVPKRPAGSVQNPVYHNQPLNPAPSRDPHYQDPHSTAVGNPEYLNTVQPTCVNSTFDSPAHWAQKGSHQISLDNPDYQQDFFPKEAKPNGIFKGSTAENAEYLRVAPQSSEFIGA
smiles,measurement,setting,value
C=CC(=O)Nc1ccc(-c2ccnc(Nc3ccc(N4CCOCC4)cc3)n2)cc1,Vz,[1],220.42 L/kg
same,IC50,[2],1.7 nM
same,CLz/F,[3],136 mL/min/kg
same,inhibition,[4],Dose-dependent effect
same,bioavailability,[5],23.8%
same,inhibition,[6],Active
same,Activity,Mus musculus,Dose-dependent effect
same,Activity,[7],Non-Toxic
same,Vd,[8],8.36 L/kg
same,"inhibition at 1 h, 0.1 µM",[9],1.2%
same,CLz/F,[10],1619 mL/min/kg
same,MRT inf,[11],1.42 h
